# Where two headings read alike, the source gives them in different places. Ends that are not written are not given here.
# What was measured:
# [1] = tested on: methicillin-resistant Staphylococcus aureus (MRSA, No. 164 strain); experiment: Treatment effect test on mice infected by MRSA, bacterial count in intestine content; format: in vivo; conditions: oral 100 mg/kg; for MRSA bacterial quantity in intestine content, administered group 1 / MRSA bacterial quantity in intestine content, administered group 2 / MRSA bacterial quantity in intestine content, administered group 3 / MRSA bacterial quantity in intestine content, administered group 4 / MRSA bacterial quantity in intestine content, administered group 5 / MRSA bacterial quantity in intestine content, Average: mice; for MRSA bacterial quantity in intestine content, administered group 1 / MRSA bacterial quantity in intestine content, administered group 2 / MRSA bacterial quantity in intestine content, administered group 3 / MRSA bacterial quantity in intestine content, administered group 4 / MRSA bacterial quantity in intestine content, administered group 5: approximately 24 hours after administration; for MRSA bacterial quantity in intestine content, Average: average of groups 1-5
# Protocol: The following test was performed to evaluate the treatment effect on mice infected by bacterial (MRSA) of sample 22 obtained by synthesis.
# Mice (ICR, SLC, male, 5 weeks old) were prepared by rearing on drinking water mixed with amphotericin B (AMPH: product of Bristol-Myers Company) and tetracycline, such that their concentrations are 10 μg/mL (AMPH) and 2000 μg/mL (tetracycline) respectively, a week before the start of the test, and the immunity of the mice was weaken by administrating 200 mg/kg amount of cyclophosphamide into the abdominal for 3 days from the fourth day prior to the test.
# Bacterial suspension prepared by suspending methicillin-resistant Staphylococcus aureus (MRSA, No. 164 strain) in 10% (w/v) of mucin solution was orally administered to the mice at a bacterial administration quantity of 10^8 cells/mouse, thereby eliciting MRSA infection.
# One hour after the bacterial inoculation, antimicrobial agent prepared by suspending the test material (therefore polypeptide of sample 22) in 10% of gum arabic solution was orally administered. The administered quantity of suspension was 100 mg/kg. A total of 5 test groups, with each test group containing 5 test mice, were tested. For comparison, antimicrobial agent prepared by suspending vancomycin in 10% of gum arabic solution was orally administered to the test mice under the same conditions.
# After the drug administration, test mice were slaughtered approximately 24 hours later, and the contents in the intestine extracted, and the bacterial count of MRSA examined. More specifically, 1.8 mL of physiological saline was added to and mixed with approximately 0.2 g of intestine contents. A fixed quantity of such mixture was smeared on mannitol agar medium (product of Nissui Pharmaceutical Co., Ltd) including gentamicin (GM) with a concentration of […], and cultured for 3 days at 37° C.
# [2] = tested on: Escherichia coli IFO 3972; experiment: MIC by liquid medium dilution technique, 96-well microplate, gram-negative bacteria; format: cell-based
# Protocol: (§1) Regarding the antimicrobial peptide (samples 1 to 20) related to the present invention, the antimicrobial activities (minimum inhibitory concentration: MIC) with respect to gram-negative bacteria (Escherichia coli IFO 3972) and gram-positive bacteria (Staphylococcus aureus IFO 12732) were determined by a liquid medium dilution technique using a 96-well microplate.
# (§2) First, a drug (synthesized polypeptide) solution having a concentration of 40 times of the highest test concentration was prepared using sterile distilled water, and liquid-bouillon mediums (more specifically, “Mueller Hinton Broth” manufactured by DIFCO) including cation and having drug concentrations of 100, 50, 25, 12.5, 6.3, 3.1, 1.6 and 0.8 μM were respectively produced. The cation included was prepared as follows: dissolving 3.68 g of CaCl2.2H2O in 100 mL of purified water (10 mg.Ca^2+/mL), and thereafter adding 500 μL thereof into 100 mL of Mueller Hinton Broth; and dissolving 8.36 g of MgCl2.6H2O in 100 mL of purified water (10 mg.Mg^2+/mL), and thereafter adding 250 μL thereof into 100 mL of Mueller Hinton Broth. Thereafter, the produced liquid-bouillon mediums including the drug of each concentration were then fed to the 96-well microplate at […] a time.
# (§3) At the same time, test bacteria cultured for 18 hours at 37° C. on an agar plate (“Muller Hinton Agar” manufactured by DIFCO) were gathered by scratching with a loop, and then suspended in a sterilized physiological saline. Bacterial suspension 5 μL prepared at an equivalent of 2×10^7 cells/mL was respectively inoculated (number of bacteria to be tested: approximately 1×10^6 cells/mL) onto the drug solution and fed to each well of the above-described microplate. After inoculation, the microplate was then incubated in an incubator at 37° C., and the presence of bacteria was evaluated based on the turbidity 24 hours later. The minimum drug concentration (polypeptide concentration), in which an increased in turbidity caused by bacteria was not detected at the time of measurement, was defined as MIC (minimum inhibitory concentration) (unit: μM) in the present embodiment. In addition, MIC were determined in the same manner using polymyxin B as a comparison.
# S. aureus = format: cell-based, Staphylococcus aureus
# Protocol: as §2, §3
# Next, the antimicrobial activities (MIC) against gram-positive bacteria (S. aureus) in the presence of serum were tested with the same method as Example 2. […] Thereafter, the produced liquid-bouillon mediums including the drug and the serum of each concentration were then fed to the 96-well microplate at […] a time, and MIC were determined by the method same as Example 2. Sample X in the table is a mixture of sample 1 and sample 16 based on a mass ratio of 1:1. “-” in the table indicate “untested”.
# [3] = tested on: Staphylococcus aureus IFO 12732; format: cell-based
# Protocol: as §1, §2, §3
# [4] = Mueller Hinton Broth with cation, 37° C., turbidity after 24 hours
molecule,measurement,setting,value
"CN[C@H](CC(C)C)C(=O)N[C@H]1C(=O)N[C@@H](CC(N)=O)C(=O)N[C@H]2C(=O)N[C@H]3C(=O)N[C@H](C(=O)N[C@H](C(=O)O)c4cc(O)cc(O)c4-c4cc3ccc4O)[C@H](O)c3ccc(c(Cl)c3)Oc3cc2cc(c3O[C@@H]2O[C@H](CO)[C@@H](O)[C@H](O)[C@H]2O[C@H]2C[C@](C)(N)[C@H](O)[C@H](C)O2)Oc2ccc(cc2Cl)[C@H]1O [Vancomycin, vancomycin, reference compound]","MRSA bacterial quantity in intestine content, administered group 1",[1],8 ×10^3 cells/g
same,"MRSA bacterial quantity in intestine content, administered group 2",[1],10 ×10^3 cells/g
same,"MRSA bacterial quantity in intestine content, administered group 3",[1],43 ×10^3 cells/g
same,"MRSA bacterial quantity in intestine content, administered group 4",[1],22 ×10^3 cells/g
same,"MRSA bacterial quantity in intestine content, administered group 5",[1],26 ×10^3 cells/g
same,"MRSA bacterial quantity in intestine content, Average",[1],22 ×10^3 cells/g
"H-LKRKLQRLMWWML-NH2 [sample 15, LKRKLQRLMWWML-CONH2]",Antimicrobial Activities (MIC) E. coli,"[2]; IFO 3972, 24 h",12.5 µM
same,"Antimicrobial Activities (MIC) against S. aureus, horse serum concentration 10%",S. aureus,6.3 µM
same,Antimicrobial Activities (MIC) S. aureus,"[3]; IFO 12732, 24 h",3.1 µM
"H-RIRKKLRLMWWMLR-NH2 [sample 14, RIRKKLRLMWWMLR-CONH2]",Antimicrobial Activities (MIC) E. coli,"[2]; IFO 3972, 24 h",6.3 µM
same,"Antimicrobial Activities (MIC) against S. aureus, horse serum concentration 10%",S. aureus,6.3 µM
same,Antimicrobial Activities (MIC) S. aureus,"[3]; IFO 12732, 24 h",3.1 µM
"H-RKKKRKVLMWWMLKPV-NH2 [sample 21, RKKKRKVLMWWMLKPV-CONH2]","Antimicrobial Activities (MIC) against S. aureus, horse serum concentration 10%",S. aureus,1.6 µM
same,"antimicrobial activity against S. aureus in the presence of serum, in words","S. aureus; horse serum, Table 3",particularly high antimicrobial activity
"H-RKKKRKVLMWWMLR-OH [sample 16, RKKKRKVLMWWMLR-COOH]",Antimicrobial Activities (MIC) E. coli,"[2]; IFO 3972, 24 h",12.5 µM
same,"Antimicrobial Activities (MIC) against S. aureus, horse serum concentration 10%",S. aureus,3.1 µM
same,Antimicrobial Activities (MIC) S. aureus,"[3]; IFO 12732, 24 h",3.1 µM
"Ac-RKKKRKVLMWWMLR-NH2 [sample 8, Ac-RKKKRKVLMWWMLR-CONH2]",Antimicrobial Activities (MIC) E. coli,"[2]; IFO 3972, 24 h",12.5 µM
same,"Antimicrobial Activities (MIC) against S. aureus, horse serum concentration 10%",S. aureus,3.1 µM
same,"Antimicrobial Activities (MIC) against S. aureus, horse serum concentration 50%",S. aureus,6.3 µM
same,Antimicrobial Activities (MIC) S. aureus,"[3]; IFO 12732, 24 h",3.1 µM
polymyxin B [reference compound],Antimicrobial Activities (MIC) E. coli,[2]; [4],1.6 µM
same,"Antimicrobial Activities (MIC) against S. aureus, horse serum concentration 10%",S. aureus; horse serum 10%,6.3 µM
same,"Antimicrobial Activities (MIC) against S. aureus, horse serum concentration 20%",S. aureus; horse serum 20%,6.3 µM
same,"Antimicrobial Activities (MIC) against S. aureus, horse serum concentration 50%",S. aureus; horse serum 50%,3.1 µM
same,Antimicrobial Activities (MIC) S. aureus,[3]; [4],6.3 µM
LKRKLQRVVYWLL-CONH2 (LKRKLQRVVYWLL-NH2) [sample 22],"MRSA bacterial quantity in intestine content, administered group 1",[1],36 ×10^3 cells/g
same,"MRSA bacterial quantity in intestine content, administered group 2",[1],35 ×10^3 cells/g
same,"MRSA bacterial quantity in intestine content, administered group 3",[1],30 ×10^3 cells/g
same,"MRSA bacterial quantity in intestine content, administered group 4",[1],16 ×10^3 cells/g
same,"MRSA bacterial quantity in intestine content, administered group 5",[1],26 ×10^3 cells/g
same,"MRSA bacterial quantity in intestine content, Average",[1],29 ×10^3 cells/g
same,"treatment effect on MRSA-infected mice, in words",[1]; compared with vancomycin,exhibited the same effect as the drug including vancomycin
"H-RKKKRKVLMWWMLAR-NH2 [sample 6, RKKKRKVLMWWMLAR-CONH2]",Antimicrobial Activities (MIC) E. coli,[2]; [4],12.5 µM
same,"Antimicrobial Activities (MIC) against S. aureus, horse serum concentration 10%",S. aureus; horse serum 10%,3.1 µM
same,"Antimicrobial Activities (MIC) against S. aureus, horse serum concentration 20%",S. aureus; horse serum 20%,3.1 µM
same,"Antimicrobial Activities (MIC) against S. aureus, horse serum concentration 50%",S. aureus; horse serum 50%,1.6 µM
same,Antimicrobial Activities (MIC) S. aureus,[3]; [4],6.3 µM
"H-LMWWMLRIRKKLR-NH2 [sample 4, LMWWMLRIRKKLR-CONH2]",Antimicrobial Activities (MIC) E. coli,"[2]; IFO 3972, 24 h",6.3 µM
same,"Antimicrobial Activities (MIC) against S. aureus, horse serum concentration 10%",S. aureus,6.3 µM
same,Antimicrobial Activities (MIC) S. aureus,"[3]; IFO 12732, 24 h",3.1 µM
"H-RGDLMWWMLAR-NH2 [comparative sample 1, RGDLMWWMLAR-CONH2, reference compound]",Antimicrobial Activities (MIC) E. coli,"[2]; IFO 3972, 24 h",>100 µM
same,"Antimicrobial Activities (MIC) against S. aureus, horse serum concentration 10%",S. aureus,>50 µM
same,Antimicrobial Activities (MIC) S. aureus,"[3]; IFO 12732, 24 h",>100 µM
"H-RIRKKLRLMWWMLAR-NH2 [sample 7, RIRKKLRLMWWMLAR-CONH2]",Antimicrobial Activities (MIC) E. coli,"[2]; IFO 3972, 24 h",6.3 µM
same,"Antimicrobial Activities (MIC) against S. aureus, horse serum concentration 10%",S. aureus,3.1 µM
same,"Antimicrobial Activities (MIC) against S. aureus, horse serum concentration 20%",S. aureus,6.3 µM
same,"Antimicrobial Activities (MIC) against S. aureus, horse serum concentration 50%",S. aureus,6.3 µM
same,Antimicrobial Activities (MIC) S. aureus,"[3]; IFO 12732, 24 h",3.1 µM

# Source: patent US7674771B2, “Antimicrobial peptides and utilization of the same” (Toagosei Co., Ltd, priority 2003, dated 2010)
